pIC50: −log10 of the molar value.
Target: Tyrosine-protein kinase Fyn (Homo sapiens) (UniProt P06241)
Assay: inhibitors of human FYN tyrosine kinase activity – biochemical, Z'-LYTE, FRET readout, direct format, dose response (AID 1671282)
Settings: Z'-LYTE FRET kinase assay, recombinant FYN

Sequence of Tyrosine-protein kinase Fyn (Homo sapiens) (P06241 whole entry, looked up): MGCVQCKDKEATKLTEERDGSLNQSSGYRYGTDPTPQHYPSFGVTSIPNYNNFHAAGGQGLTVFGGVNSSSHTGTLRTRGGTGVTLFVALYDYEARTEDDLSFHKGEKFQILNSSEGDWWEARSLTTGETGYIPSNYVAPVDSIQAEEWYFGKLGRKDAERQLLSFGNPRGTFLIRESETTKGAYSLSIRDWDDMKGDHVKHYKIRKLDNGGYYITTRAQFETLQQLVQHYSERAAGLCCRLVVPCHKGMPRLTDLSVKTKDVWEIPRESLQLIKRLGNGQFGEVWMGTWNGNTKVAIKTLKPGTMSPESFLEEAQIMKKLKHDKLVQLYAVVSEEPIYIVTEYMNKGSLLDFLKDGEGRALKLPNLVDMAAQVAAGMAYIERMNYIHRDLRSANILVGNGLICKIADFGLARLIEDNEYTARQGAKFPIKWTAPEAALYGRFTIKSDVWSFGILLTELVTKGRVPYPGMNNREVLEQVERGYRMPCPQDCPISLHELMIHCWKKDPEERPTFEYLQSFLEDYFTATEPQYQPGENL

pIC50: 5.06
Structure (SMILES): COc1cc2ncnc(Nc3cccc(Cl)c3)c2cc1OC
